Reference: patent US3985740A, “7-[D-(α-amino-α-phenyl-, 2-thienyl- and 3-thienylacetamido)]-3-(5-methylthiazol-2-yl)carbonylthiomethyl-3-cephem -4-carboxylic acids” (Bristol-Myers Company, priority 1974, dated 1976)
Values after ≈ are worked out from the molar mass of the structure shown. Like-named read-outs stand apart in the source and are kept apart here.

Assays:
S. aureus A9748 = test: M.I.C. by tube dilution; assay type: cell-based; settings: Staphylococcus aureus, overnight 37° C., read-out: M.I.C.
[1] = Blood levels in the mouse after oral administration; assay type: in vivo; settings: for concentration at 0.5 h / concentration at 1 h / concentration at 2 h / concentration at 3.5 h: blood, 100 mg/kg, read-out: Blood Level; for concentration at 1 h: 1 hr. after administration; for concentration at 2 h: 2 hrs. after administration; for concentration at 3.5 h: 3.5 hrs. after administration
Procedure: Blood levels in the mouse after oral administration were
determined with the following results:

E. coli A9675 = test: M.I.C. by tube dilution; assay type: cell-based; settings: Escherichia coli, A9675; at 10^-^4 dilution; overnight 37° C.; read-out: M.I.C.
Ps. aeruginosa A9843A = test: M.I.C. by tube dilution; assay type: cell-based; settings: Pseudomonas aeruginosa
E. coli Juhl A15119 = test: M.I.C. by tube dilution; assay type: cell-based; settings: Escherichia coli, JUHLA15119
D. pneumoniae A9585 = test: M.I.C. by tube dilution; assay type: cell-based; settings: Streptococcus pneumoniae, D. pneumoniae + 5% serum, 50% Nutrient Broth - 45% Antibiotic Assay Broth, overnight 37° C.
[2] = test system: S. aureus BX 1633-2 A9606; test: M.I.C. by tube dilution; assay type: cell-based; settings: Staphylococcus aureus, overnight 37° C., read-out: M.I.C.
K. pneumoniae A9977 = test: M.I.C. by tube dilution; assay type: cell-based; settings: Klebsiella pneumoniae, A9977; at 10^-^4 dilution; overnight 37° C.; read-out: M.I.C.
Sal. enteritidis A9531 = test: M.I.C. by tube dilution; assay type: cell-based; settings: Salmonella enterica, ENTERITIDIS; at 10^-^4 dilution; overnight 37° C.; read-out: M.I.C.
Str. pyogenes A9604 = test: M.I.C. by tube dilution; assay type: cell-based; settings: Streptococcus pyogenes, Str. pyogenes + 5% serum, 50% Nutrient Broth - 45% Antibiotic Assay Broth, overnight 37° C.
Ser. marcescens A20019 = test: M.I.C. by tube dilution; assay type: cell-based; settings: Serratia marcescens
S. aureus Smith A9537 = test: M.I.C. by tube dilution; assay type: cell-based; settings: Staphylococcus aureus, overnight 37° C., read-out: M.I.C.
Pr. mirabilis A9900 = test: M.I.C. by tube dilution; assay type: cell-based; settings: Proteus mirabilis, A9900, at 10^-^4 dilution, overnight 37° C.
Pr. morganii A15153 = test: M.I.C. by tube dilution; assay type: cell-based; settings: Morganella morganii
K. pneumoniae A15130 = test: M.I.C. by tube dilution; assay type: cell-based; settings: Klebsiella pneumoniae, A15130, at 10^-^4 dilution, overnight 37° C.
[3] = test system: S. aureus methicillin-resistant A15097; test: M.I.C. by tube dilution; assay type: cell-based; settings: Staphylococcus aureus, at 10^-^3 dilution, overnight 37° C.
[4] = test system: certain important pathogenic organisms; test: In vitro activity in the primary screening tests (overall); assay type: cell-based; settings: in words
Text: This combination of good oral absorption and high antibacterial activity in a cephalosporin while highly desirable is quite uncommon in compounds reported to date. […] To illustrate the unpredictability of oral absorption and antibacterial activity in a closely related series of cephalosporin compounds, Tables 1-8 below compare in vitro activities and oral absorption as tested in the mouse of the compounds of the formula ##SPC12##

[5] = mouse, oral, 100 mgm./kg., 0.5 hrs. after administration
[6] = at 10^-^4 dilution, overnight 37° C., read-out: M.I.C.
[7] = BX16332A9606, at 10^-^2 dilution
[8] = BX16332A9606, at 10^-^3 dilution
[9] = SMITHA9537, + 50% serum, at 10^-^4 dilution

| Compound | MIC (S. aureus A9748; A9748, at 10^-^2 dilution) [µg/mL] | MIC (S. aureus A9748; A9748, at 10^-^3 dilution) [µg/mL] | concentration at 0.5 h [1, 5] [ng/mL] | concentration at 1 h ([1]; mouse, oral, 100 mgm./kg.) [ng/mL] | concentration at 2 h ([1]; mouse, oral, 100 mgm./kg.) [ng/mL] | concentration at 3.5 h ([1]; mouse, oral, 100 mgm./kg.) [ng/mL] | MIC (E. coli A9675) [µg/mL] | MIC (Ps. aeruginosa A9843A) [µg/mL] | MIC (E. coli Juhl A15119; [6]) [µg/mL] | MIC (D. pneumoniae A9585) [µg/mL] | MIC [2, 7] [µg/mL] | MIC [2, 8] [µg/mL] | MIC (K. pneumoniae A9977) [µg/mL] | MIC (Sal. enteritidis A9531) [µg/mL] | MIC (Str. pyogenes A9604) [µg/mL] | MIC (S. aureus Smith A9537; [9]) [µg/mL] | MIC (S. aureus Smith A9537; SMITHA9537, at 10^-^4 dilution) [µg/mL] | MIC (Pr. mirabilis A9900; read-out: M.I.C.) [µg/mL] | MIC (Pr. morganii A15153) [µg/mL] | MIC [3] [µg/mL] | further results |
| --- | --- | --- | --- | --- | --- | --- | --- | --- | --- | --- | --- | --- | --- | --- | --- | --- | --- | --- | --- | --- | --- |
| Cc1csc(C(=O)SCC2=C(C(=O)O)N3C(=O)C(NC(=O)[C@H](N)c4ccccc4)[C@H]3SC2)n1 (stereo partly drawn) [Compound 556, 7-[D-α-aminophenylacetamido]-3-(4-methylthiazol-2-yl)carbonylthiomethyl-3-cephem-4-carboxylic acid] | 8 (≈ 15.9 µM) | 4 (≈ 7.93 µM) | 15200 | 16200 | 7800 | < 2100 | 32 (≈ 63.4 µM) | 125 (≈ 248 µM) | 32 (≈ 63.4 µM) | 1.3 | 4 (≈ 7.93 µM) | 1.3 (≈ 2.58 µM) | 32 (≈ 63.4 µM) | 1 (≈ 1.98 µM) | 2.5 | 63 | 1.3 (≈ 2.58 µM) | 32 (≈ 63.4 µM) | 125 (≈ 248 µM) | 4 (≈ 7.93 µM) | Blood Level [1, 5]: 15200 ng/mL; MIC (Ser. marcescens A20019; [6]): 63 µg/mL (≈ 125 µM); MIC (K. pneumoniae A15130): 125 µg/mL (≈ 248 µM) |
| N[C@@H](C(=O)NC1C(=O)N2C(C(=O)O)=C(CSC(=O)c3nccs3)CS[C@H]12)c1ccccc1 (stereo partly drawn) [Compound 567, 7-[D-(-)-α-Aminophenylacetamido]-3-(thiazol-2-yl)carbonylthiomethyl-3-cephem-4-carboxylic acid] | 16 (≈ 32.6 µM) | 4 (≈ 8.15 µM) | 16000 | 14100 | 3400 | < 400 | 4 (≈ 8.15 µM) | > 125 |  | 0.04 | 2 (≈ 4.08 µM) | 0.6 (≈ 1.22 µM) | 2 (≈ 4.08 µM) | 0.08 (≈ 0.163 µM) | 0.04 | 8 | 0.3 (≈ 0.612 µM) | 2 (≈ 4.08 µM) |  | 4 (≈ 8.15 µM) | oral absorption ([1]; in words): good oral absorption properties; MIC (E. coli Juhl A15119): 1 µg/mL (≈ 2.04 µM); MIC (Ser. marcescens A20019): 125 µg/mL (≈ 255 µM); activity relative to cephalexin [4]: excellent activity relative to cephalexin; MIC (Pr. morganii A15153; [6]): 63 µg/mL (≈ 128 µM); MIC (K. pneumoniae A15130; read-out: M.I.C.): 8 µg/mL (≈ 16.3 µM) |
| Cc1nc(C(=O)SCC2=C(C(=O)O)N3C(=O)C(NC(=O)[C@H](N)c4ccccc4)[C@H]3SC2)sc1C (stereo partly drawn) [Compound 587, 7-[D-α-aminophenylacetamido]-3-(4,5-dimethylthiazol-2-yl)carbonylthiomethyl-3-cephem-4-carboxylic acid] | 16 (≈ 30.8 µM) | 4 (≈ 7.71 µM) | 6300 | 8900 | 4300 | 2000 | 32 (≈ 61.7 µM) | > 125 | 16 (≈ 30.8 µM) | 2.5 | 1 (≈ 1.93 µM) | 0.6 (≈ 1.16 µM) | 32 (≈ 61.7 µM) | 2.5 (≈ 4.82 µM) | 2.5 | > 63 | 0.3 (≈ 0.578 µM) |  | > 125 | 4 (≈ 7.71 µM) | MIC (Ser. marcescens A20019): > 125 µg/mL; MIC (Pr. mirabilis A9900): > 125 µg/mL; MIC (K. pneumoniae A15130): > 125 µg/mL |
